Test results: ChEMBL document CHEMBL1201862, “PubChem BioAssay data set” (2004)
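Following 48 hours of exposure in 96-well plates, responses at five concentrations were used to interpolate endpoints linearly. GI50 is the concentration that inhibits growth by half.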 Calls of active or inactive are those of the source. No stated cut-off is given here; in the data, active = GI50 up to about 1.1 µM and inactive = higher.

Key:
Experiment in all cases: NCI anticancer screen, dose series, 48 h
[1] = system: HT-29
[2] = system: NCI-H522
[3] = system: K562
[4] = system: NCI-H460
[5] = system: A549
[6] = system: Malme-3M
[7] = system: UACC-257
[8] = system: NCI-H23
[9] = system: NCI-H226
[10] = system: Hs-578T
[11] = system: UO-31
[12] = system: DU-145
[13] = system: M14
[14] = system: MCF7
[15] = system: NCI/ADR-RES
[16] = system: SK-MEL-2
[17] = system: IGROV-1
[18] = system: CAKI-1
[19] = system: BT-549

Measured: GI50

C=CC1(c2ccc(Cl)c(Cl)c2)OCCO1
inactive: [1] 88.5 µM | [2] > 100 µM | [3] 27.7 µM | [4] > 100 µM | [5] > 100 µM | [6] > 100 µM | [7] > 100 µM | [8] 45.8 µM | [9] 71.8 µM | [10] 40.8 µM | [11] > 100 µM | [12] > 100 µM | [13] > 100 µM | [14] > 100 µM | [15] > 100 µM | [16] 79.4 µM | [17] > 100 µM

O=C1NCCCc2nonc21
inactive: [1] > 100 µM | [3] > 100 µM | [4] > 100 µM | [5] > 100 µM | [6] > 100 µM | [7] > 100 µM | [8] > 100 µM | [18] > 100 µM | [9] > 100 µM | [10] > 100 µM | [11] > 100 µM | [12] > 100 µM | [13] > 100 µM | [14] > 100 µM | [15] > 100 µM | [16] > 100 µM | [17] > 100 µM

O=S(=O)(O)c1cc(/N=N/c2cccc3ccccc23)c(O)c2ncccc12
inactive: [1] 24.8 µM | [3] 32.1 µM | [4] 25.4 µM | [5] 35.4 µM | [7] 64.4 µM | [8] 38.9 µM | [18] > 100 µM | [9] 16 µM | [19] > 100 µM | [12] > 100 µM | [13] 47.8 µM | [14] 23.7 µM | [15] 65.2 µM | [16] 82 µM | [17] 29.3 µM

COc1nc2c(c(=O)n1C)N=C(c1ccc(Cl)cc1)CC(c1ccccc1)N2 (stereo not drawn)
inactive: [1] 18.7 µM | [2] 17.9 µM | [3] 6.78 µM | [4] 14.4 µM | [5] 36.5 µM | [7] 26.5 µM | [8] 25.2 µM | [18] 26.9 µM | [9] 16.1 µM | [11] 33.5 µM | [19] 27.4 µM | [12] 33.3 µM | [13] 32.9 µM | [14] 14.8 µM | [15] 22.2 µM | [16] 18.7 µM | [17] 17.2 µM

COc1cc(C(C#N)NNc2nc(C)cc(O)n2)cc(OC)c1OC (stereo not drawn)
inactive: [1] > 100 µM | [2] > 100 µM | [3] > 100 µM | [4] > 100 µM | [5] > 100 µM | [6] > 100 µM | [7] > 100 µM | [8] > 100 µM | [18] > 100 µM | [9] > 100 µM | [11] 75 µM | [13] > 100 µM | [16] > 100 µM | [17] > 100 µM

Cc1cc(N=C2C=C(Br)C(=O)C(Br)=C2)cc(CN(CC(=O)O)CC(=O)O)c1O
inactive: [1] > 100 µM | [2] > 100 µM | [3] > 100 µM | [4] > 100 µM | [5] > 100 µM | [6] > 100 µM | [7] > 100 µM | [8] > 100 µM | [18] > 100 µM | [9] > 100 µM | [10] > 100 µM | [11] > 100 µM | [12] > 100 µM | [13] > 100 µM | [14] > 100 µM | [15] > 100 µM | [16] > 100 µM | [17] > 100 µM

Cc1cc(C)c2c(c1)C(=O)/C(=C/c1ccccc1C(=O)O)C2
inactive: [1] 59 µM | [2] 20.6 µM | [3] 52.5 µM | [4] 58.5 µM | [5] 65.6 µM | [6] > 100 µM | [7] > 100 µM | [18] > 100 µM | [9] 30.9 µM | [10] > 100 µM | [11] > 100 µM | [19] 78 µM | [12] > 100 µM | [13] 90.4 µM | [14] 88.7 µM | [16] > 100 µM | [17] > 100 µM

CC(C)(C)[Si](C)(C)OC1/C(=C/C#N)C(n2ccc(=O)[nH]c2=O)OC1CO (stereo not drawn)
inactive: [1] > 100 µM | [2] > 100 µM | [3] 96.2 µM | [4] > 100 µM | [5] > 100 µM | [6] > 100 µM | [8] > 100 µM | [18] > 100 µM | [11] > 100 µM | [12] > 100 µM | [13] > 100 µM | [14] > 100 µM | [15] > 100 µM | [16] > 100 µM

O=C1CCCCC1=C(I)I
inactive: [3] 16 µM | [4] 21.4 µM | [5] 37.8 µM | [6] 14.3 µM | [9] 19.7 µM | [10] 63 µM | [11] 16.7 µM | [19] 13 µM | [12] 19.7 µM | [13] 18 µM | [16] 16.7 µM | [17] 15.5 µM

CC(C)=C[C@H]1CCC2(OCCO2)[C@]1(C)COCc1ccccc1
inactive: [2] 29 µM | [4] 22.3 µM | [5] 33.3 µM | [6] 23.9 µM | [7] 16.4 µM | [8] 25.8 µM | [18] 32 µM | [9] 14.1 µM | [11] 43.6 µM | [19] 42.7 µM | [13] 33.3 µM | [14] 41.3 µM | [15] 36.8 µM | [16] 25.5 µM

Cc1nnc2sc(Cc3cnc(N)s3)nn12
inactive: [1] > 100 µM | [2] > 100 µM | [3] > 100 µM | [4] > 100 µM | [5] > 100 µM | [6] > 100 µM | [7] > 100 µM | [8] > 100 µM | [9] 77.6 µM | [10] > 100 µM | [11] > 100 µM | [12] > 100 µM | [13] > 100 µM | [14] > 100 µM | [15] > 100 µM | [16] > 100 µM | [17] 91.4 µM

N#Cc1ccc(/C=N/NC(=O)CSCC(=O)N/N=C/c2ccc(C#N)cc2)cc1
inactive: [1] > 100 µM | [2] > 100 µM | [3] > 100 µM | [4] > 100 µM | [5] > 100 µM | [6] > 100 µM | [7] > 100 µM | [8] > 100 µM | [18] > 100 µM | [9] > 100 µM | [10] > 100 µM | [11] > 100 µM | [12] > 100 µM | [13] > 100 µM | [14] > 100 µM | [15] > 100 µM | [16] > 100 µM | [17] > 100 µM

CNC(=O)CN(CC(N)=O)C(=O)NC
inactive: [1] > 100 µM | [2] > 100 µM | [3] > 100 µM | [4] > 100 µM | [5] > 100 µM | [6] > 100 µM | [8] > 100 µM | [18] > 100 µM | [9] > 100 µM | [11] > 100 µM | [13] > 100 µM | [16] > 100 µM | [17] > 100 µM
